Results: PMC4674167 (The Journal of organic chemistry, 2015)
Like-named read-outs stand apart in the source and are kept apart here.

Experiments:
[1] = rat, in vivo, cited from earlier work; for p.o. AUC0-inf / p.o. Cmax: po, 25 mg/kg
[2] = rat, in vivo; for i.v. AUC0-inf / i.v. CL / i.v. t1/2: iv, 2.5 mg/kg; for p.o. AUC0-inf / p.o. Cmax: po, 25 mg/kg
[3] = biological target: MbtA (Mycobacterium tuberculosis, UniProt P71716); type: biochemical; conditions: for Ki: read-out: Ki^app, apparent Ki against MbtA; for fold more potent in MbtA inhibition than the 3′-α-fluoro diastereomer: 14 vs 15, 16 vs 17
[4] = tested on: M. tuberculosis strain H37Rv; type: cell-based, Mycobacterium tuberculosis; conditions: for fold more potent in MIC than the 3′-α-fluoro diastereomer: 14 vs 15, 16 vs 17, M. tuberculosis H37Rv
[5] = Single dose pharmacokinetics in cannulated rats

MbtA, sequence (P71716 whole entry): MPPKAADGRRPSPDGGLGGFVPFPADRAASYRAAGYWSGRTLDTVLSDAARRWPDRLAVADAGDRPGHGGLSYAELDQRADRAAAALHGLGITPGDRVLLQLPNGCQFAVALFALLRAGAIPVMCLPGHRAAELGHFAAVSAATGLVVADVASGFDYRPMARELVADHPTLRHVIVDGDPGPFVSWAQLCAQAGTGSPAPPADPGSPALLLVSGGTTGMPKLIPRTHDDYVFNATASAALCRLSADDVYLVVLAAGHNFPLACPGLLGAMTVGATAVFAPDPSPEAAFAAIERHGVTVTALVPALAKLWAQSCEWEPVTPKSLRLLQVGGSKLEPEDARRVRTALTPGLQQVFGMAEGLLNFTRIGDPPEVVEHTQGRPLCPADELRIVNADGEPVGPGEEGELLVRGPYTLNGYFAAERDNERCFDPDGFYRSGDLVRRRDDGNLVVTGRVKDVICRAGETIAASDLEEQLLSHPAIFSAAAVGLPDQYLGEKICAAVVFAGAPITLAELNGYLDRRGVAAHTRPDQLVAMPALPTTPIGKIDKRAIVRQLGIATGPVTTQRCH

Nc1ncnc2c1ncn2[C@@H]1O[C@H](COS(=O)(=O)NC(=O)c2ccccc2O)[C@@H](O)[C@H]1O [compound 10, 5′-O-[N-(salicyl)sulfamoyl]adenosine]
i.v. AUC0-inf ([1]; iv, 2.5 mg/kg): 519 ± 115 μg.min.mL^–1 | i.v. t1/2 ([1]; iv, 2.5 mg/kg): 11.2 ± 2.2 min | p.o. AUC0-inf [1]: 66 ± 41 μg.min.mL^–1 | p.o. Cmax [1]: 0.40 ± 0.20 μg.mL^–1 | F (relative oral bioavailability) [1]: 1.3 ± 0.7%

Nc1ncnc2c1ncn2[C@@H]1O[C@H](CNS(=O)(=O)NC(=O)c2ccccc2O)[C@@H](O)[C@H]1O [compound 11]
i.v. AUC0-inf ([1]; iv, 2.5 mg/kg): 304 ± 60 μg.min.mL^–1 | i.v. CL ([1]; iv, 2.5 mg/kg): 8.4 ± 1.9 mL.min^–1.kg^–1 | i.v. t1/2 ([1]; iv, 2.5 mg/kg): 10.6 ± 0.7 min | p.o. AUC0-inf [1]: 100 ± 14 μg.min.mL^–1 | p.o. Cmax [1]: 0.70 ± 0.07 μg.mL^–1 | F (relative oral bioavailability) [1]: 3.5 ± 0.2%

CCN(CC)CC.Nc1ncnc2c1ncn2[C@@H]1O[C@H](CNS(=O)(=O)NC(=O)c2ccccc2O)[C@@H](O)[C@H]1F [compound 12, 9-[2,5-Dideoxy-2-fluoro-5-{N-(N-2-hydroxybenzoyl)sulfamoyl}amino-β-D-ribofuranosyl]adenine Triethylammonium Salt]
F (relative oral bioavailability) [2]: 1.8 ± 0.9% | i.v. AUC0-inf [2]: 1040 ± 330 μg.min.mL^–1 | i.v. CL [2]: 2.5 ± 0.9 mL.min^–1.kg^–1 | i.v. t1/2 [2]: 32.5 ± 7.4 min | p.o. AUC0-inf [2]: 187 ± 11 μg.min.mL^–1 | p.o. Cmax [2]: 0.46 ± 0.30 μg.mL^–1 | Ki [3]: 1.7 to 1.8 nM | Ki ([3]; listed as C00001): 1.7 ± 0.1 nM | MIC [4]: 0.19 µM

CCN(CC)CC.Nc1ncnc2c1ncn2[C@@H]1O[C@H](CNS(=O)(=O)NC(=O)c2ccccc2O)[C@@H](O)[C@@H]1F [compound 13, 9-[2,5-Dideoxy-2-fluoro-5-{N-(N-2-hydroxybenzoyl)sulfamoyl}amino-β-D-arabinofuranosyl]adenine Triethylammonium Salt]
F (relative oral bioavailability) [2]: 4.7 ± 1.1% | i.v. AUC0-inf [2]: 913 ± 65 μg.min.mL^–1 | i.v. CL [2]: 2.7 ± 0.2 mL.min^–1.kg^–1 | i.v. t1/2 [2]: 31.7 ± 1.9 min | p.o. AUC0-inf [2]: 422 ± 70 μg.min.mL^–1 | p.o. Cmax [2]: 1.09 ± 0.03 μg.mL^–1 | Ki [3]: 1.7 to 1.8 nM | Ki ([3]; listed as C00003): 1.8 ± 0.1 nM | MIC [4]: 0.15 µM

CCN(CC)CC.Nc1ncnc2c1ncn2[C@@H]1O[C@H](CNS(=O)(=O)NC(=O)c2ccccc2O)[C@H](F)[C@H]1O [compound 14, 9-[3,5-Dideoxy-3-fluoro-5-{N-(N-2-hydroxybenzoyl)sulfamoyl}amino-β-D-xylofuranosyl]adenine Triethylammonium Salt]
F (relative oral bioavailability) [2]: 2.3 ± 0.4% | i.v. AUC0-inf [2]: 366 ± 33 μg.min.mL^–1 | i.v. CL [2]: 6.9 ± 0.3 mL.min^–1.kg^–1 | i.v. t1/2 [2]: 17.4 ± 1.4 min | p.o. AUC0-inf [2]: 84 ± 12 μg.min.mL^–1 | p.o. Cmax [2]: 0.64 ± 0.22 μg.mL^–1 | fold more potent in MbtA inhibition than the 3′-α-fluoro diastereomer [3]: approximately 10 fold | Ki [3]: 0.6 ± 0.3 nM | MIC [4]: 0.60 µM | fold more potent in MIC than the 3′-α-fluoro diastereomer [4]: fourfold

CCN(CC)CC.Nc1ncnc2c1ncn2[C@@H]1O[C@H](CNS(=O)(=O)NC(=O)c2ccccc2O)[C@@H](F)[C@H]1O [compound 15, 9-[3,5-Dideoxy-3-fluoro-5-{N-(N-2-hydroxybenzoyl)sulfamoyl}amino-β-D-ribofuranosyl]adenine Triethylammonium Salt]
F (relative oral bioavailability) [2]: 3.5 ± 0.2% | i.v. AUC0-inf [2]: 807 ± 78 μg.min.mL^–1 | i.v. CL [2]: 3.1 ± 0.3 mL.min^–1.kg^–1 | i.v. t1/2 [2]: 37.0 ± 1.7 min | p.o. AUC0-inf [2]: 266 ± 2 μg.min.mL^–1 | p.o. Cmax [2]: 0.92 ± 0.04 μg.mL^–1 | Ki [3]: 6.4 ± 0.3 nM | MIC [4]: 2.3 µM

CCN(CC)CC.Nc1ncnc2c1ncn2[C@@H]1O[C@H](CNS(=O)(=O)NC(=O)c2ccccc2O)[C@H](F)[C@H]1F [compound 16, 9-[2,3,5-Trideoxy-2,3-difluoro-5-{N-(N-2-hydroxybenzoyl)sulfamoyl}amino-β-D-xylofuranosyl]adenine Triethylammonium Salt]
F (relative oral bioavailability) [2]: 11.4 ± 0.3% | i.v. AUC0-inf [2]: 312 ± 54 μg.min.mL^–1 | i.v. CL [2]: 8.5 ± 1.6 mL.min^–1.kg^–1 | i.v. t1/2 [2]: 17.2 ± 1.3 min | p.o. AUC0-inf [2]: 362 ± 85 μg.min.mL^–1 | p.o. Cmax [2]: 0.97 ± 0.42 μg.mL^–1 | fold more potent in MbtA inhibition than the 3′-α-fluoro diastereomer [3]: ~100 fold | Ki [3]: 1.4 ± 0.3 nM | MIC [4]: 0.78 µM | fold more potent in MIC than the 3′-α-fluoro diastereomer [4]: ca. 50 fold

CCN(CC)CC.Nc1ncnc2c1ncn2[C@@H]1O[C@H](CNS(=O)(=O)NC(=O)c2ccccc2O)[C@@H](F)[C@H]1F [compound 17, 9-[2,3,5-Trideoxy-2,3-difluoro-5-{N-(N-2-hydroxybenzoyl)sulfamoyl}amino-β-D-ribofuranosyl]adenine Triethylammonium Salt]
F (relative oral bioavailability) [2]: 5.3 ± 1.3% | i.v. AUC0-inf [2]: 10100 ± 2200 μg.min.mL^–1 | i.v. CL [2]: 0.24 ± 0.06 mL.min^–1.kg^–1 | i.v. t1/2 [2]: 267 ± 36 min | p.o. AUC0-inf [2]: 4730 ± 540 μg.min.mL^–1 | p.o. Cmax [2]: 5.99 ± 0.56 μg.mL^–1 | Ki [3]: 139 ± 10 nM | fold increase in half-life compared to SAL-AMS (10) [5]: ca. 25 fold | fold higher Cmax compared to SAL-AMS (10) ([5]; p.o. 25 mg/kg): 15 fold | fold increase in F% compared to SAL-AMS (10) ([5]; p.o. 25 mg/kg): fourfold | fold increased oral exposure (oral AUC) compared to SAL-AMS (10) ([5]; p.o. 25 mg/kg): ca. 75 fold | MIC [4]: 37 µM
